Our source for the TGI and GI50 values is PubChem BioAssay (NCI).

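Step 1: Grow cells in 96-well plates. Step 2: Expose to compound for 48 hours at 5 concentrations. Step 3: Interpolate endpoints linearly; if unreached, use highest concentration. GI50 is the concentration that inhibits growth by half. TGI marks complete inhibition of growth.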

What all share (assay): NCI tumour cell line growth inhibition, 48 h
Test [1] deals with M19-MEL melanoma.
The subject of test [2] is SN12K1 renal.
Test [3] relates to OVCAR-5 ovarian.
The test system of test [4] is MALME-3M melanoma.
Test [5] deals with SK-MEL-5 melanoma.
Test [6] relates to SF-295 CNS.
Test [7] concerns COLO 205 colon.
The subject of test [8] is OVCAR-4 ovarian.
The subject of test [9] is MCF7 breast.
The test system of test [10] is NCI-H522 lung.
Test [11] deals with SK-MEL-28 melanoma.
For test [12], the system named is P388 leukemia.
Test [13] deals with P388/ADR leukemia.

As for `CCN(CC)CCCOC(=O)/C=C/c1c(C)[nH]c(=O)[nH]c1=O`, the TGI in test [1], in [2], in test [3], in test [4], in [5] and in test [6] was more than 625 µM throughout. Further, the TGI is more than 625 µM in test [7]; more than 394 µM in [8]; more than 625 µM in [9]; more than 625 µM in test [10]; more than 625 µM in test [11]; more than 625 µM in [12]. In test [13], this compound yielded a TGI of more than 394 µM.
As to `CC(=O)[C@@H]1CCC=C2CC[C@]3(C)[C@@H](CC[C@@H]4[C@@]5(C)CCCNC(C)(C)[C@@H]5CC[C@]43C)[C@H]21`, the GI50 in [6] was 1.81 µM; in [7], 1.38 µM; in test [8], 1.86 µM; in test [9], 1.37 µM; in test [10] it was 1.93 µM; in [11], 1.81 µM. The TGI in [6] was determined as 3.26 µM; in test [7], 2.79 µM; in test [8], 3.39 µM; in [9], 2.92 µM; in test [10] it was 3.5 µM; in [11], 3.35 µM.
For `Cc1c2c(cc3c1[nH]c1ccccc13)C=NCC2`, the TGI in test [1] came to 33 µM; in [2] it was 14.4 µM; in [3], 61 µM; in test [4] it was 11.7 µM; in [5], 12.7 µM; in test [6], 27.1 µM. The TGI in test [7] amounted to 22.4 µM; in test [8], 53 µM; in test [9], 8.7 µM; in test [10], 41.8 µM; in [11] it was 16.8 µM; in [12], 17.6 µM. For the same compound, the TGI in [13] was 53.1 µM.
Take `O=C(CC/C=C(/CS(=O)(=O)c1ccccc1)S(=O)(=O)c1ccccc1)c1ccccc1`: the TGI in [3] was more than 100 µM; in test [5] it was more than 100 µM; in test [6], more than 100 µM; in [8], more than 100 µM; in [10] it was 49.8 µM; in test [11], more than 100 µM.
For the compound `CC(=O)NCCC1CN(C(=O)/C=C\C#C[Si](C)(C)C)c2ccccc21` (stereo unspecified), the TGI was 33.7 µM in [3]; 49.4 µM in test [4]; more than 100 µM in test [5]; more than 100 µM in test [6]; more than 100 µM in test [7]; 63.3 µM in test [8]. Also, the TGI in [9] is more than 100 µM; in [10] it was 24.3 µM; in test [11], more than 100 µM.
Regarding `CCCCCCCCCCCCCCCCSCC(COC)COP(=O)([O-])OCC[N+](C)(C)C` (stereo unspecified), the TGI was determined as 11 µM in [1]; 24.2 µM in [2]; 26 µM in test [3]; 29.4 µM in [4]; 25.2 µM in test [5]; 11.6 µM in test [6]. Moreover, the TGI in test [7] came to 3.96 µM; in [8] it was 15.3 µM; in [9], 26.7 µM; in [10], 10.9 µM; in test [11], 29.5 µM; in [12], 5.26 µM. The compound further returned a TGI in test [13] of 15.2 µM.
Turning to `CC(=O)OCC1OC(n2cc(F)c(=O)[nH]c2=O)C(N)C(OC(C)=O)C1OC(C)=O` (stereo unspecified), the TGI in test [1], in test [2], in test [3], in [4], in [5] and in test [6] was more than 100 µM throughout. Further, the TGI in test [7], in [8], in [9], in test [10], in test [12] and in test [13] was more than 100 µM each time.
Consider `Nc1nc2c(c(=O)[nH]1)N(C=O)C(CNc1ccc(C(=O)N[C@@H](CCC(=O)O)C(=O)O)cc1)CN2` (stereo partly specified), for which the TGI in test [1], in test [2], in [3], in [4], in [5] and in test [6] was more than 125 µM each time. Besides, the TGI in [7], in test [8], in test [9], in [10], in [11] and in test [12] was more than 125 µM in each case. Also, the TGI in test [13] was more than 125 µM.
With `O=C1CC(=O)c2c(O)cc(O)c(c2O)-c2c(ccc(O)c2O)C2=CC(=O)c3c(O)cc(O)c(c3O2)-c2c1ccc(O)c2O` (tested in a mixture with another compound), the TGI in test [3], in test [4], in [5], in [6], in test [7] and in test [8] was more than 50 µM throughout. Further, the TGI in test [9] and in test [11] was more than 50 µM throughout.
As to `CCOC(=O)c1sc2nc(SC)nc3c2c1NC(=O)CN3c1cccc(F)c1`, the TGI was more than 100 µM in test [3]; more than 100 µM in [4]; more than 100 µM in [5]; 40.2 µM in test [6]; more than 100 µM in test [7]; 42 µM in test [8]. The TGI in test [9] was more than 100 µM; in test [10] it was more than 100 µM; in test [11], 22.9 µM.
For `O=C(NCCCCCCNC(=O)n1cc(F)c(=O)[nH]c1=O)NCCCOCCOCCCNC(=O)C(O)C(O)C(O)C(O)CO` (stereo unspecified), the TGI in test [1], in [2], in test [3], in test [4], in [5] and in test [6] was more than 2.5 µM each time. Besides, the TGI in test [7], in test [8], in [9], in [10], in test [11] and in test [12] was more than 2.5 µM in each case. In test [13], this compound yielded a TGI of more than 2.5 µM.
